Experiments:
Type in all cases: cell-based
[1] = system: human hepatocytes maintained in micropatterned co-culture with 3T3-J2 murine embryonic fibroblasts; experiment: Gluconeogenesis (glucose production) in glycogen-depleted MPCC; conditions: at 24 hours, following a varying dose of metformin; FIG. 9B
Experimental: To test for gluconeogenesis in diabetic hepatocytes in co-culture, the MPCC hepatocyte cultures comprising diabetic versus non-diabetic cells were subjected to glucose-free medium for 24-48 hours, thereby depleting the resident glycogen stores so that cells were only able to perform gluconeogenesis in the presence of the glucose precursors lactate and pyruvate. Gluconeogenesis rate was measured by incubating glycogen-depleted cultures with the substrates pyruvate and lactate, in glucose-free medium and glucose measurement in medium (Amplex Red) at 24 hours, thereby isolating the contribution of gluconeogenesis to glucose production, from potential residual glucose output due to glycogen depletion.
Cells were also tested under the glycogen depletion conditions as described above, for the effect of hormones on glucose production. The MPCCs were subjected to glycogen depletion for 12 hours, followed by stimulation of gluconeogenesis using lactate or pyruvate, in the presence or absence of insulin, glucagon or dexamethasone. Released glucose was measured 24 hours later.

[2] = system: human hepatocytes maintained in micropatterned co-culture with 3T3-J2 murine embryonic fibroblasts; experiment: Glycogen lysis in MPCC, PAS stain of intracellular glycogen; conditions: glucose free medium + 100 nm hormone, 24 hrs after treatment; FIG. 11A
Experimental: (§1) Glycogen lysis and glycogen synthesis in MPCC hepatocytes was also studied. The rate of glycogen lysis in MPCCs was measured by incubating cultures with glucose-free/hormone-free medium for 48 hours (fasting), followed by fixation of cultures using 4% paraformaldehyde and staining of intracellular glycogen (periodic acid Schiff stain (“PAS stain”)). The rate of glycogen synthesis was measured by first depleting glycogen stores as described above, followed by addition of glucose to medium (feeding) and staining of glycogen at specific time-points. Results at 24 hours are shown in FIGS. 11A-B. FIG. 11A is a panel of four photomicrographs of human hepatocytes maintained in micropatterned co-culture with 3T3-J2 murine embryonic fibroblasts, indicating glycogenolysis in the cells under four conditions: 25 mM glucose, glucose free, glucose free+100 nm glucagon, and glucose free+100 nm insulin, 24 hrs after treatment. […] MPCCs were cultured in glucose free media for 2 days and depleted of all glycogen prior to the addition of 5 mM glucose. […]

[3] = system: human hepatocytes maintained in micropatterned co-culture with 3T3-J2 murine embryonic fibroblasts; experiment: Glycogen synthesis in MPCC, PAS stain of intracellular glycogen; conditions: glycogen-depleted, 5 mM glucose + 100 nm hormone, 24 hours after treatment; FIG. 11B
Experimental: as §1

## CN(C)C(=N)N=C(N)N [metformin]
[1]
  glucose production (gluconeogenesis): dose-dependent blockage

## glucagon
[2]
  glycogenolysis (intracellular glycogen, PAS stain): at a higher rate when stimulated by glucagon
[3]
  glycogen synthesis (intracellular glycogen, PAS stain): did not synthesize glycogen

## insulin
[2]
  glycogenolysis (intracellular glycogen, PAS stain): continued storing glycogen
[3]
  glycogen synthesis (intracellular glycogen, PAS stain): at a higher rate when stimulated by insulin
